This passage reports IC50 results from US9018383B2, “Acylamino-substituted cyclic carboxylic acid derivatives and their use as pharmaceuticals” (Sanofi, priority 2009, dated 2015).

Molecules are shown by their SMILES.

human Edg-2 receptor, sequence (Q92633 whole entry): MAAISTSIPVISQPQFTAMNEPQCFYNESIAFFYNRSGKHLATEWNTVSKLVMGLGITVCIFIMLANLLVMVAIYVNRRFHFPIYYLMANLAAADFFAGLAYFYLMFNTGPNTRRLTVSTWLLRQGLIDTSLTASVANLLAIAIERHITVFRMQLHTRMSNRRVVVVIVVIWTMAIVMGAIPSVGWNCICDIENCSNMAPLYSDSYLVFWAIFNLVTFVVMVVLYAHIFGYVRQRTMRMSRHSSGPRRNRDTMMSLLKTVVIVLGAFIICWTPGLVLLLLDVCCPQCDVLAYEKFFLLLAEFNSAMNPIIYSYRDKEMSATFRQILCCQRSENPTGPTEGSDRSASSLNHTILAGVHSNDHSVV

This assay deals with human Edg-2 receptor (Homo sapiens, UniProt Q92633). Put plainly: Determination of Edg-2 receptor inhibition by FLIPR measurements (LPA-mediated calcium liberation). Format: cell-based. The following applies: CHO cells overexpressing human Edg-2 receptor, LPA 100 nM, fluo-4 calcium fluorescence; read-out: Inhibitory concentrations IC50 for inhibition of the Edg-2 receptor. The method, boiled down:
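CHO cells stably overexpressing human Edg-2, loaded with fluo-4 AM, were pre-incubated ~5 min with compound (≤0.3% DMSO), then stimulated with 100 nM LPA 18:1 in HBSS/HEPES/probenecid, pH 7.5. Peak calcium fluorescence over ~3 min, baseline-corrected, versus DMSO gave % inhibition; IC50 from triplicates.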
As to `COc1ccc(C(=O)NC2(C(=O)O)CCC(CO)CC2)cc1OCCc1cccc(C)c1` (stereo not drawn) [Example 58, 4-Hydroxymethyl-1-[4-methoxy-3-(2-m-tolyl-ethoxy)-benzoylamino]-cyclohexanecarboxylic acid], the IC50 fell in the range of 1000 to 30000 nM.

On to `Cc1cccc(CCOc2cc(C(=O)N[C@]3(C(=O)O)CC[C@H](C(F)(F)F)CC3)cc3c2OCO3)c1` [Example 133, cis-1-{[7-(2-m-Tolyl-ethoxy)-benzo[1,3]dioxole-5-carbonyl]-amino}-4-trifluoromethyl-cyclohexanecarboxylic acid], for which the IC50 was less than 100 nM.

In the case of `CC[C@H]1CC[C@](NC(=O)c2ccc(C3COC3)c(OCCc3cccc(C)c3)c2)(C(=O)O)CC1` [Example 130, cis-4-Ethyl-1-[4-oxetan-3-yl-3-(2-m-tolyl-ethoxy)-benzoylamino]-cyclohexanecarboxylic acid], the IC50 is less than 100 nM.

For `O=C(NC1(C(=O)O)CCCCCC1)c1ccc(OCCO)c(OCCc2ccccc2)c1` [Example 422, 1-[4-(2-Hydroxy-ethoxy)-3-phenethyloxy-benzoylamino]cycloheptanecarboxylic acid], the IC50 fell in the range of 100 to 1000 nM.

For the compound `CC[C@H]1CC[C@@](NC(=O)c2ccc(OC)c(-c3ccc(OC)c(Cl)c3)c2)(C(=O)O)CC1` [Example 352], the IC50 was less than 100 nM.

As to `COc1ccc(C(=O)N[C@@]2(C(=O)O)C[C@@H]3CC[C@H]2O3)cc1OCCc1cccc(C)c1` (racemic) [Example 126, (1R,2S,4S)-2-[4-Methoxy-3-(2-m-tolyl-ethoxy)-benzoylamino]-7-oxa-bicyclo[2.2.1]heptane-2-carboxylic acid and (1S,2R,4R)-2-[4-methoxy-3-(2-m-tolyl-ethoxy)-benzoylamino]-7-oxa-bicyclo[2.2.1]heptane-2-carboxylic acid], the IC50 is less than 100 nM.

In the case of `COc1ccc(C(=O)N[C@]2(C(=O)O)CC[C@H](C)CC2)cc1OCCc1cc(OC(F)(F)F)ccc1F` [Example 405, cis-1-{3-[2-(2-Fluoro-5-trifluoromethoxy-phenyl)-ethoxy]-4-methoxy-benzoylamino}-4-methyl-cyclohexanecarboxylic acid], the IC50 was less than 100 nM.

For `COc1ccc(-c2cc(C(=O)N[C@]3(C(=O)O)CC[C@@H](C)CC3)cnc2OC)cc1Cl` [Example 320], the IC50 was less than 100 nM.

For `COc1ncc(C(=O)N[C@]2(C(=O)O)CC[C@H](C)CC2)cc1OCCc1cc(C)ccc1C` [Example 86, cis-1-({5-[2-(2,5-Dimethyl-phenyl)-ethoxy]-6-methoxy-pyridine-3-carbonyl}-amino)-4-methyl-cyclohexanecarboxylic acid], the IC50 lay within 1000 to 30000 nM.

In the case of `COc1ccc(C(=O)NC2(C(=O)O)CCCCCC2)cc1OCCc1cccc(CCO)c1` [Example 107, 1-(3-{2-[3-(2-Hydroxy-ethyl)-phenyl]-ethoxy}-4-methoxy-benzoylamino)-cycloheptanecarboxylic acid], the IC50 is less than 100 nM.

On to `CC[C@H]1CC[C@](NC(=O)c2ccc(OC)c(OCCc3cccc(C4COC4)c3)c2)(C(=O)O)CC1` [Example 127, cis-4-Ethyl-1-{4-methoxy-3-[2-(3-oxetan-3-yl-phenyl)-ethoxy]-benzoylamino}-cyclohexanecarboxylic acid], for which the IC50 is less than 100 nM.

Turning to `COc1ccc(C(=O)NC2(C(=O)O)CCCCCC2)cc1OCCc1cc(C)ccc1C` [Example 18], the IC50 was in the range of 100 to 1000 nM.

Consider `CCc1ncc(C(=O)N[C@]2(C(=O)O)CC[C@H](C)CC2)cc1OCCc1cccc(Cl)c1` [Example 435, cis-1-({5-[2-(3-Chloro-phenyl)-ethoxy]-6-ethyl-pyridine-3-carbonyl}-amino)-4-methyl-cyclohexanecarboxylic acid], for which the IC50 lay in the range of 100 to 1000 nM.

Consider `COc1ncc(C(=O)N[C@]2(C(=O)O)CC[C@@H](C)CC2)cc1-c1cc(Cl)cc(C(F)(F)F)c1` [Example 315], for which the IC50 is less than 100 nM.

For the compound `C[C@H]1CC[C@@](NC(=O)c2ccc(OCCO)c(OCCc3ccccc3)c2)(C(=O)O)CC1` [Example 420, trans-1-[4-(2-Hydroxy-ethoxy)-3-phenethyloxy-benzoylamino]-4-methyl-cyclohexanecarboxylic acid], the IC50 is 100 to 1000 nM.

`COc1ccc(C(=O)NC2(C(=O)O)CCCC(C)CC2)cc1OCCc1cccc(C)c1` (stereo not drawn) [Example 26]: the IC50 was less than 100 nM.

For the compound `Cc1cccc(CCOc2cc(C(=O)NC3(C(=O)O)CCCCCC3)cc3c2OC(F)(F)O3)c1` [Example 455, 1-{[2,2-Difluoro-7-(2-m-tolyl-ethoxy)-benzo[1,3]dioxole-5-carbonyl]-amino}-cycloheptanecarboxylic acid], the IC50 is less than 100 nM.

Turning to `CC[C@H]1CC[C@](NC(=O)c2ccc(OC)c(-c3cccc(C(F)(F)F)c3)c2)(C(=O)O)CC1` [Example 331], the IC50 was less than 100 nM.

As to `COc1ncc(C(=O)N[C@]2(C(=O)O)CC[C@@H](C)CC2)cc1-c1cc(F)c(F)c(F)c1` [Example 314], the IC50 was less than 100 nM.

As for `COc1ccc(C(=O)NC2(C(=O)O)CCC(C)C2)cc1OCCc1cccc(C)c1` (stereo not drawn) [Example 33], the IC50 is less than 100 nM.

Regarding `COc1ccc(C(=O)NC2(C(=O)O)CCC3(CC3)CC2)cc1OCCc1cccc(C)c1` [Example 57, 6-[4-Methoxy-3-(2-m-tolyl-ethoxy)-benzoylamino]-spiro[2.5]octane-6-carboxylic acid], the IC50 is less than 100 nM.

As to `CCC(COc1cc(C(=O)NC2(C(=O)O)CCCCCC2)ccc1OC)c1ccccc1` (stereo not drawn) [Example 14], the IC50 was 100 to 1000 nM.

For `CC[C@H]1CC[C@](NC(=O)c2cnc(OC)c(-c3cc(F)c(F)c(F)c3)c2)(C(=O)O)CC1` [Example 301], the IC50 was less than 100 nM.

Regarding `COc1ccc(C(=O)NC2(C(=O)O)CCCC(C)C2)cc1OCCc1cccc(C)c1` (stereo not drawn) [Example 367], the IC50 lay in the range of 100 to 1000 nM.

With `CC[C@H]1CC[C@](NC(=O)c2ccc(OC)c(OCCc3cccc(CCO)c3)c2)(C(=O)O)CC1` [Example 111, cis-4-Ethyl-1-(3-{2-[3-(2-hydroxy-ethyl)-phenyl]-ethoxy}-4-methoxy-benzoylamino)-cyclohexanecarboxylic acid], the IC50 was less than 100 nM.

With `COCCOc1ccc(C(=O)N[C@]2(C(=O)O)CC[C@@H](C)CC2)cc1OCCc1cccc(Cl)c1` [Example 114, trans-1-[3-[2-(3-Chloro-phenyl)-ethoxy]-4-(2-methoxy-ethoxy)-benzoylamino]-4-methyl-cyclohexanecarboxylic acid], the IC50 was 100 to 1000 nM.

As for `Cc1cccc(CCOc2cc(C(=O)NC3(C(=O)O)CCCCCC3)ccc2OCCO)c1` [Example 124, 1-[4-(2-Hydroxy-ethoxy)-3-(2-m-tolyl-ethoxy)-benzoylamino]-cycloheptane-carboxylic acid], the IC50 was in the range of 100 to 1000 nM.

For the compound `CC[C@H]1CC[C@@](NC(=O)c2cnc(OC)c(-c3cccc(Cl)c3Cl)c2)(C(=O)O)CC1` [Example 309], the IC50 was less than 100 nM.

As to `CC[C@H]1CC[C@](NC(=O)c2ccc(OC)c(-c3cccc(OC(F)(F)F)c3)c2)(C(=O)O)CC1` [Example 327], the IC50 was less than 100 nM.

Consider `COc1ccc(C(=O)NC2(C(=O)O)CCCCCC2)cc1OCCc1ccccc1F` [Example 13], for which the IC50 was less than 100 nM.

`COc1ncc(C(=O)N[C@]2(C(=O)O)CC[C@H](C)CC2)cc1-c1cc(F)c(F)c(F)c1` [Example 313]: the IC50 is less than 100 nM.

For `COCCOc1ccc(C(=O)N[C@]2(C(=O)O)CC[C@@H](C)CC2)cc1OCCc1cccc(C)c1` [Example 117, trans-1-[4-(2-Methoxy-ethoxy)-3-(2-m-tolyl-ethoxy)-benzoylamino]-4-methyl-cyclohexane-carboxylic acid], the IC50 was in the range of 1000 to 30000 nM.

Turning to `CC[C@H]1CC[C@](NC(=O)c2cnc(OC)c(-c3cccc(F)c3)c2)(C(=O)O)CC1` [Example 409], the IC50 was less than 100 nM.

On to `COc1ccc(C(=O)NC2(C(=O)O)CCCCCC2)cc1OCC1CC=CCC1` (stereo not drawn) [Example 12], for which the IC50 lay in the range of 100 to 1000 nM.

As to `COc1ccc(C(=O)NC2(C(=O)O)CCCCCC2)cc1OCC(F)(F)c1ccccc1` [Example 71, 1-[3-(2,2-Difluoro-2-phenyl-ethoxy)-4-methoxy-benzoylamino]-cycloheptanecarboxylic acid], the IC50 was less than 100 nM.

As to `COc1ncc(C(=O)NC2(C(=O)O)CCCCCCC2)cc1OCCc1cccc(C)c1` [Example 78, 1-{[6-Methoxy-5-(2-m-tolyl-ethoxy)-pyridine-3-carbonyl]-amino}-cyclooctanecarboxylic acid], the IC50 was in the range of 100 to 1000 nM.

For the compound `COc1ccc(C(=O)NC2(C(=O)O)CCC(F)CC2)cc1OCCc1cccc(C)c1` (stereo not drawn) [Example 44], the IC50 lay in the range of 100 to 1000 nM.

Consider `CC[C@H]1CC[C@](NC(=O)c2ccc(CCCO)c(-c3cccc(C(F)(F)F)c3)c2)(C(=O)O)CC1` [Example 433, cis-4-Ethyl-1-{[6-(3-hydroxy-propyl)-3′-trifluoromethyl-biphenyl-3-carbonyl]-amino}-cyclohexanecarboxylic acid], for which the IC50 was less than 100 nM.

For `COc1ccc(C(=O)NC2(C(=O)O)CCCC(O)CC2)cc1OCCc1cccc(C)c1` (stereo not drawn) [Example 53, 4-Hydroxy-1-[4-methoxy-3-(2-m-tolyl-ethoxy)-benzoylamino]-cycloheptanecarboxylic acid], the IC50 is 100 to 1000 nM.

Consider `COc1ccc(C(=O)NC2(C(=O)O)CCCCCC2)cc1OCCc1cc(Cl)ccc1F` [Example 3, 1-{3-[2-(5-Chloro-2-fluoro-phenyl)-ethoxy]-4-methoxy-benzoylamino}-cycloheptanecarboxylic acid], for which the IC50 was less than 100 nM.

Regarding `Cc1cccc(CCOc2cc(C(=O)NC3(C(=O)O)CCCCCC3)ccc2Br)c1` [Example 65, 1-[4-Bromo-3-(2-m-tolyl-ethoxy)-benzoylamino]-cycloheptanecarboxylic acid], the IC50 was less than 100 nM.

As to `COc1ccc(C(=O)NC2(C(=O)O)CCC(C(F)(F)F)CC2)cc1OCCc1cccc(C)c1` (stereo not drawn) [Example 28], the IC50 is less than 100 nM.
